Test results as given in patent US11813340B2, “PSMA targeted radiohalogenated urea-polyaminocarboxylates for cancer radiotherapy” (The Johns Hopkins University, priority 2018, dated 2023).
Where two headings read alike, the source gives them in different places.

Experiments:
[1] = tested on: preclinical models of human prostate cancer (PC); conditions: Kiess et al., 2016, cited from earlier work
[2] = tested on: PSMA + PC3-PIP and PSMA-PC3-flu flank xenografts; conditions: no blocker, inhibitors reported in WO2017070482, cited from earlier work
[3] = tested on: PSMA+PC3-PIP and PSMA-PC3-flu flank xenografts; assay: Biodistribution of [125I/211At]2 and 3 with and without co-injection of DCIBzL (Example 6); format: in vivo, athymic mice; conditions: no co-injection
Source text: Final compounds were purified by HPLC.

[4] = tested on: PSMA + PC3-PIP and PSMA-PC3-flu flank xenografts; conditions: without cold blocking agent
Description: Final compounds were purified by HPLC. […] Organs were harvested 1, 4, and 24 h post-injection (n=5 per time point).

[5] = tested on: PiP (tumor) and Flu (tumor); assay: Biodistribution of [125I]VK-03-03 and [125I]VK-03-03-Lu in mice (Table 9); format: in vivo
[6] = tested on: PSMA + PC3-PIP and PSMA-PC3-flu flank xenografts; assay: Biodistribution of At-211 labeled PSMA inhibitors with and without cold blocking agent (Tables 6-8); format: in vivo, athymic mice; conditions: mice

For O=C(O)CC[C@H](NC(=O)NC(CCCCNC(=O)c1ccc([211At])cc1)C(=O)O)C(=O)O (stereo partly drawn) [YC-I-27, (2S)-2-(3-(1-Carboxy-5-(4-211At-Astatobenzamido)Pentyl)Ureido)-Pentanedioic Acid], the “efficacy as PSMA-targeted radiopharmaceutical therapy (RPT) agent” value [1] is listed as “high efficacy”, the renal toxicity ([1]; due to high uptake and long retention in kidney) is listed as “caused renal failure” and the “Biodistribution, Blood” value ([2]; 1 Hour) is listed as 1.7 ± 0.3 % injected dose/g. For the same molecule, the “Biodistribution, Flu tumor” value ([2]; 1 Hour) was 2.2 ± 0.4 % injected dose/g, the “Biodistribution, PIP tumor” value ([2]; 1 Hour) was 17.9 ± 3.0 % injected dose/g and the “Biodistribution, Spleen” value ([2]; 1 Hour) was 29 ± 10 % injected dose/g. For the same molecule, the “Biodistribution, Stomach” value ([2]; 1 Hour) was 10.1 ± 1.7 % injected dose/g, the “Biodistribution, kidney” value ([2]; 1 Hour) was 71 ± 12 % injected dose/g and the “Biodistribution, thyroid” value ([2]; 1 Hour) was 3.7 ± 1.1 % injected dose/g. The “Biodistribution, Blood” value ([2]; 4 H) was 1.0 ± 0.1 % injected dose/g, the “Biodistribution, Flu tumor” value ([2]; 4 H) was 1.5 ± 0.2 % injected dose/g and the “Biodistribution, Spleen” value ([2]; 4 H) was 20.3 ± 3.6 % injected dose/g. The “Biodistribution, kidney” value ([2]; 4 H) was 60 ± 12 % injected dose/g, the “Biodistribution, thyroid” value ([2]; 4 H) was 3.8 ± 1.2 % injected dose/g and the “Biodistribution, Blood” value ([2]; 21-24 Hour (footnote a)) was 0.5 ± 0.05 % injected dose/g. For the same molecule, the “Biodistribution, Flu tumor” value ([2]; 21-24 Hour (footnote a)) was 1.2 ± 0.2 % injected dose/g, the “Biodistribution, PIP tumor” value ([2]; 21-24 Hour (footnote a)) was 31.1 ± 9.8 % injected dose/g and the “Biodistribution, Spleen” value ([2]; 21-24 Hour (footnote a)) was 8.0 ± 2.0 % injected dose/g. The “Biodistribution, Stomach” value ([2]; 21-24 Hour (footnote a)) was 9.4 ± 3.0 % injected dose/g, the “Biodistribution, kidney” value ([2]; 21-24 Hour (footnote a)) was 57.4 ± 7.4 % injected dose/g and the “Biodistribution, thyroid” value ([2]; 21-24 Hour (footnote a)) was 6.5 ± 2.0 % injected dose/g.
For O=C(O)CC[C@H](NC(=O)N[C@@H](CCCCN(Cc1ccc([125I])cc1)C(=O)CCCCNC(=O)CN1CCN(CC(=O)O)CCN(CC(=O)O)CCN(CC(=O)O)CC1)C(=O)O)C(=O)O [[^125I]VK-02-90], the “retention of radioactivity, lacrimal glands (LG)” value ([3]; 1h) was 17.4±6.0 % ID/g, the “retention of radioactivity, salivary glands (SG)” value ([3]; 1h) was 5.1±3.4 % ID/g and the “retention of radioactivity, kidneys (K)” value ([3]; 4 h) was 162±36 % ID/g. For the same molecule, the “retention of radioactivity, kidneys (K)” value ([3]; 24 h) was 30.6±14.0 % ID/g, the “Biodistribution, Blood” value ([4]; 1 H) was 1.1 ± 0.3 % injected dose/g and the “Biodistribution, Flu tumor” value ([4]; 1 H) was 1.4 ± 0.6 % injected dose/g. The “Biodistribution, Kidneys” value ([4]; 1 H) was 194 ± 25 % injected dose/g, the “Biodistribution, Lacrimal glands” value ([4]; 1 H) was 17.4 ± 6.0 % injected dose/g and the “Biodistribution, Pip (tumor)” value ([4]; 1 H) was 58 ± 14 % injected dose/g. For the same molecule, the “Biodistribution, Salivary glands” value ([4]; 1 H) was 5.1 ± 3.4 % injected dose/g, the “Biodistribution, Spleen” value ([4]; 1 H) was 40.2 ± 16.4 % injected dose/g and the “Biodistribution, Stomach” value ([4]; 1 H) was 1.1 ± 0.3 % injected dose/g. For the same molecule, the “Biodistribution, Blood” value ([4]; 4 H) was 0.2 ± 0.03 % injected dose/g, the “Biodistribution, Flu tumor” value ([4]; 4 H) was 0.3 ± 0.06 % injected dose/g and the “Biodistribution, Kidneys” value ([4]; 4 H) was 162 ± 36 % injected dose/g. For the same molecule, the “Biodistribution, Lacrimal glands” value ([4]; 4 H) was 1.9 ± 0.45 % injected dose/g, the “Biodistribution, Pip (tumor)” value ([4]; 4 H) was 38 ± 13 % injected dose/g and the “Biodistribution, Salivary glands” value ([4]; 4 H) was 0.7 ± 0.2 % injected dose/g. The “Biodistribution, Spleen” value ([4]; 4 H) was 4.7 ± 1.2 % injected dose/g, the “Biodistribution, Stomach” value ([4]; 4 H) was 0.4 ± 0.2 % injected dose/g and the “Biodistribution, Blood” value ([4]; 24 H) was 0.02 ± 0.01 % injected dose/g. The “Biodistribution, Flu tumor” value ([4]; 24 H) was 0.04 ± 0.02 % injected dose/g, the “Biodistribution, Kidneys” value ([4]; 24 H) was 30.6 ± 14.0 % injected dose/g and the “Biodistribution, Lacrimal glands” value ([4]; 24 H) was 0.5 ± 0.2 % injected dose/g. The “Biodistribution, Pip (tumor)” value ([4]; 24 H) was 51 ± 7 % injected dose/g, the “Biodistribution, Salivary glands” value ([4]; 24 H) was 0.3 ± 0.3 % injected dose/g and the “Biodistribution, Spleen” value ([4]; 24 H) was 0.7 ± 0.4 % injected dose/g. The “Biodistribution, Stomach” value ([4]; 24 H) was 0.05 ± 0.03 % injected dose/g.
With O=C(O)CC[C@H](NC(=O)N[C@@H](CCCCN(Cc1ccc(Br)cc1)C(=O)CCCCNC(=O)c1cc([125I])cc(C(=O)NCCNC(=O)CN2CCN(CC(=O)O)CCN(CC(=O)O)CCN(CC(=O)O)CC2)c1)C(=O)O)C(=O)O [[^125I]VK-03-03] the “Biodistribution Data, Flu (tumor)” value ([5]; 1 H) was 2.0 ± 0.7, the “Biodistribution Data, PiP (tumor)” value ([5]; 1 H) was 44.7 ± 12.2 and the “Biodistribution Data, bladder” value ([5]; 1 H) was 5.0 ± 2.9. The “Biodistribution Data, blood” value ([5]; 1 H) was 1.6 ± 0.26, the “Biodistribution Data, fat” value ([5]; 1 H) was 3.2 ± 0.7 and the “Biodistribution Data, heart” value ([5]; 1 H) was 1.6 ± 0.5. For the same molecule, the “Biodistribution Data, kidney” value ([5]; 1 H) was 132 ± 18.5, the “Biodistribution Data, lacrimal gland” value ([5]; 1 H) was 25.4 ± 4.1 and the “Biodistribution Data, large intestine” value ([5]; 1 H) was 1.2 ± 0.06. The “Biodistribution Data, liver” value ([5]; 1 H) was 0.9 ± 0.15, the “Biodistribution Data, lung” value ([5]; 1 H) was 4.5 ± 0.6 and the “Biodistribution Data, muscle” value ([5]; 1 H) was 1.0 ± 0.2. For the same molecule, the “Biodistribution Data, pancreas” value ([5]; 1 H) was 1.8 ± 0.27, the “Biodistribution Data, salivary gland” value ([5]; 1 H) was 5.0 ± 0.86 and the “Biodistribution Data, small intestine” value ([5]; 1 H) was 0.76 ± 0.13. The “Biodistribution Data, spleen” value ([5]; 1 H) was 70.0 ± 20.4, the “Biodistribution Data, stomach” value ([5]; 1 H) was 1.0 ± 0.12 and the “Biodistribution Data, Flu (tumor)” value ([5]; 4 H) was 1.2 ± 0.28. For the same molecule, the “Biodistribution Data, PiP (tumor)” value ([5]; 4 H) was 57.0 ± 15.9, the “Biodistribution Data, bladder” value ([5]; 4 H) was 2.4 ± 0.5 and the “Biodistribution Data, blood” value ([5]; 4 H) was 0.49 ± 0.08. The “Biodistribution Data, fat” value ([5]; 4 H) was 4.1 ± 1.5, the “Biodistribution Data, heart” value ([5]; 4 H) was 0.9 ± 0.03 and the “Biodistribution Data, kidney” value ([5]; 4 H) was 165 ± 14.4. The “Biodistribution Data, lacrimal gland” value ([5]; 4 H) was 15.8 ± 4.9, the “Biodistribution Data, large intestine” value ([5]; 4 H) was 0.58 ± 0.19 and the “Biodistribution Data, liver” value ([5]; 4 H) was 0.4 ± 0.2. The “Biodistribution Data, lung” value ([5]; 4 H) was 2.3 ± 0.3, the “Biodistribution Data, muscle” value ([5]; 4 H) was 0.64 ± 0.22 and the “Biodistribution Data, pancreas” value ([5]; 4 H) was 1.5 ± 0.05. For the same molecule, the “Biodistribution Data, salivary gland” value ([5]; 4 H) was 3.5 ± 0.4, the “Biodistribution Data, small intestine” value ([5]; 4 H) was 0.37 ± 0.08 and the “Biodistribution Data, spleen” value ([5]; 4 H) was 37.4 ± 8.9. The “Biodistribution Data, stomach” value ([5]; 4 H) was 0.95 ± 0.7, the “Biodistribution Data, Flu (tumor)” value ([5]; 24 H) was 0.2 ± 0.09 and the “Biodistribution Data, PiP (tumor)” value ([5]; 24 H) was 54.1 ± 6.3. The “Biodistribution Data, bladder” value ([5]; 24 H) was 1.6 ± 0.75, the “Biodistribution Data, blood” value ([5]; 24 H) was 0.09 ± 0.02 and the “Biodistribution Data, fat” value ([5]; 24 H) was 0.37 ± 0.28. The “Biodistribution Data, heart” value ([5]; 24 H) was 0.17 ± 0.08, the “Biodistribution Data, kidney” value ([5]; 24 H) was 141 ± 18.3 and the “Biodistribution Data, lacrimal gland” value ([5]; 24 H) was 2.6 ± 0.76. For the same molecule, the “Biodistribution Data, large intestine” value ([5]; 24 H) was 0.11 ± 0.06, the “Biodistribution Data, liver” value ([5]; 24 H) was 0.09 ± 0.02 and the “Biodistribution Data, lung” value ([5]; 24 H) was 0.58 ± 0.2. The “Biodistribution Data, muscle” value ([5]; 24 H) was 0.1 ± 0.05, the “Biodistribution Data, pancreas” value ([5]; 24 H) was 0.26 ± 0.07 and the “Biodistribution Data, salivary gland” value ([5]; 24 H) was 0.6 ± 0.16. For the same molecule, the “Biodistribution Data, small intestine” value ([5]; 24 H) was 0.08 ± 0.03, the “Biodistribution Data, spleen” value ([5]; 24 H) was 4.9 ± 2.7 and the “Biodistribution Data, stomach” value ([5]; 24 H) was 0.18 ± 0.06. For the same molecule, the “clearance of radioactivity in the kidneys” value ([5]; mouse, in vivo) was “does not clear over time” and the “tumor uptake” value ([5]; mouse, in vivo) was “high and prolonged tumor uptake”.
With O=C(O)CC[C@H](NC(=O)N[C@@H](CCCCN(Cc1ccc([211At])cc1)C(=O)CCCCNC(=O)CN1CCN(CC(=O)O)CCN(CC(=O)O)CCN(CC(=O)O)CC1)C(=O)O)C(=O)O [[^211At]VK-02-90] the “radioactivity in the stomach” value [6] was “very low” and the stability in-vivo [6] was “stable in-vivo”.
